In paper PMC9329436, “Optimization of the 4-anilinoquin(az)oline scaffold as epidermal growth factor receptor (EGFR) inhibitors for chordoma utilizing a toxicology profiling assay platform” (Scientific Reports, 2022):
Like-named read-outs stand apart in the source and are kept apart here.

Columns and labels:
Format in all cases: biochemical
[1] = molecular target: T1, 320 wild-type protein kinases (Homo sapiens, UniProt P25098); settings: singlicate
T1 sequence (P25098 1-689): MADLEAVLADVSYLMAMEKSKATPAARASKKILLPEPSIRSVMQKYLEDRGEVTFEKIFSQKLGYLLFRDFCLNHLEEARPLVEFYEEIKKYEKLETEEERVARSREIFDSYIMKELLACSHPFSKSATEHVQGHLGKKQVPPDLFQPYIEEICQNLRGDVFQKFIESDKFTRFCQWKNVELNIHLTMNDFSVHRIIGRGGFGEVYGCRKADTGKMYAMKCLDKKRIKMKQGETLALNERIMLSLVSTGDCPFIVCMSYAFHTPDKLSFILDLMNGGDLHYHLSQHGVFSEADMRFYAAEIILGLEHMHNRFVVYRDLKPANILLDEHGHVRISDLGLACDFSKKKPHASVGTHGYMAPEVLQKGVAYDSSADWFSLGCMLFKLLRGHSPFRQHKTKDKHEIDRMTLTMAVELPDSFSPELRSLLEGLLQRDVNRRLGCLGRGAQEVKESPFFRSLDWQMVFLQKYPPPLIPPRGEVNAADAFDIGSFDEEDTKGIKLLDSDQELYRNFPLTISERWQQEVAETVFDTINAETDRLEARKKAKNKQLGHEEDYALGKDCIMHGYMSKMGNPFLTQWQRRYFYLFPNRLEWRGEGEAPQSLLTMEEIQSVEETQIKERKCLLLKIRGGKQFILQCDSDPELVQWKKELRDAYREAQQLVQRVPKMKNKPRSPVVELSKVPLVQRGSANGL
Text: (§1) Table S4. Profiling of two compounds at two concentrations against 320 wild-type protein kinases; singlicate measurement; Residual activities (% of control).

[2] = molecular target: 320 wild-type protein kinases (Homo sapiens, UniProt P06241); settings: FYN, singlicate
Chain of 320 wild-type protein kinases (Homo sapiens, UniProt P06241) (P06241 whole entry): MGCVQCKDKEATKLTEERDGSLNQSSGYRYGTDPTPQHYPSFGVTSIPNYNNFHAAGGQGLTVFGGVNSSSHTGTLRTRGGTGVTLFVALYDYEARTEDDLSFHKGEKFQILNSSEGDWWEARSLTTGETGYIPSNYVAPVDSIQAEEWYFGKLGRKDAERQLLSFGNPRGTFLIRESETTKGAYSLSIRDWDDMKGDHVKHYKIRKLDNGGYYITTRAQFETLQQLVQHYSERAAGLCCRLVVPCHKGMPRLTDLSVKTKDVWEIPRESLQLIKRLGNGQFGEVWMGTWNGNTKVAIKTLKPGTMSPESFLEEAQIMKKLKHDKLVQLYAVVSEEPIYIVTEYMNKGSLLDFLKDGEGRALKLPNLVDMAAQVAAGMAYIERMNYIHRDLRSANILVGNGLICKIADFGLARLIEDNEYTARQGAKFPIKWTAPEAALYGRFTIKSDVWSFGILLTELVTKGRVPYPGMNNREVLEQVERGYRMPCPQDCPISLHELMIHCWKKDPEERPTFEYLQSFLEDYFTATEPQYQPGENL
Text: as §1

[3] = molecular target: T2, 320 wild-type protein kinases (Homo sapiens, UniProt Q96PF2); settings: kinase TSK2, singlicate
T2 sequence (Q96PF2 1-358): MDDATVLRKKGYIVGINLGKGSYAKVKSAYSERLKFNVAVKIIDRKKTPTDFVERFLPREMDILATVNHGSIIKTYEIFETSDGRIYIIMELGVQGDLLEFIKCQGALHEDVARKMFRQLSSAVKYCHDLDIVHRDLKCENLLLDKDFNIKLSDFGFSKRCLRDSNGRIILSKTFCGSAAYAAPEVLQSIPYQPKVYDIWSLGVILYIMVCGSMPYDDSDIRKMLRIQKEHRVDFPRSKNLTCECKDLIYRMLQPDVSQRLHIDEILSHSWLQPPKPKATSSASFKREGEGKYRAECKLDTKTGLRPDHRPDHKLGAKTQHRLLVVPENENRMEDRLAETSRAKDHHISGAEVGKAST
Text: as §1

[4] = molecular target: T3, 320 wild-type protein kinases (Homo sapiens, UniProt Q9UL54); settings: kinase TAOK2, singlicate
T3 sequence (Q9UL54 1-1235): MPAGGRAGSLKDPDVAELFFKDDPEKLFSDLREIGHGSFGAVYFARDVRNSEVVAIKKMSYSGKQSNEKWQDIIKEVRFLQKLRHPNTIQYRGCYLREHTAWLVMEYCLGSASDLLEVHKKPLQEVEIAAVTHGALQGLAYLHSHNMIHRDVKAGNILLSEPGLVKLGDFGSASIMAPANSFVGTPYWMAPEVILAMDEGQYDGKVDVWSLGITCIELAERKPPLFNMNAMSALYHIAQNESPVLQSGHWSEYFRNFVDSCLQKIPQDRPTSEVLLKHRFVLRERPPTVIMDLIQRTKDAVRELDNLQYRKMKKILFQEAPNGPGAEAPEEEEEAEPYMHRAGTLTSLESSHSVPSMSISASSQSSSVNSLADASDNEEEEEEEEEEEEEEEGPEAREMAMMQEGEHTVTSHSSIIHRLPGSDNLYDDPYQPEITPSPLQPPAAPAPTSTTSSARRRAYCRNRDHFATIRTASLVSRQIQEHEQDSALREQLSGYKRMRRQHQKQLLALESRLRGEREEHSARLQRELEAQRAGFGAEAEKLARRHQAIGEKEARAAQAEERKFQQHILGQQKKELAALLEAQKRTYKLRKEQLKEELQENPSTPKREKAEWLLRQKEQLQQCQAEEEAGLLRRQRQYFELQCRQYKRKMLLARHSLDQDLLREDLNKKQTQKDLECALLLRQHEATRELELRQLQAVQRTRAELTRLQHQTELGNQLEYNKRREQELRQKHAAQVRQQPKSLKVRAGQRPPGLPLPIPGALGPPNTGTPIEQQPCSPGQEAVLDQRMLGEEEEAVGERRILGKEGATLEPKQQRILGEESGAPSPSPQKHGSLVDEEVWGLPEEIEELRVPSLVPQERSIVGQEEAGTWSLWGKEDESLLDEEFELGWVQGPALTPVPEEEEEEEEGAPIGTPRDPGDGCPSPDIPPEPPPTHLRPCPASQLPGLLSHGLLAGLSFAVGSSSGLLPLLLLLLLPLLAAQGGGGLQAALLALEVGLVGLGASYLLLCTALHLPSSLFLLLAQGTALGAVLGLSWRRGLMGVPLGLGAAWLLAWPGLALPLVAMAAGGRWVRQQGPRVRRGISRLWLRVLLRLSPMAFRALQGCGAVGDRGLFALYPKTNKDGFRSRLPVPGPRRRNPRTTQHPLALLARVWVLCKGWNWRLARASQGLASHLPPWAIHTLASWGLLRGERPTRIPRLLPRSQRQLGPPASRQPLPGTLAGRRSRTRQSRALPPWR
Text: as §1

[5] = molecular target: 320 wild-type protein kinases (Homo sapiens, UniProt P04049, Y340D/Y341D); settings: kinase RAF1 Y340D/Y341D (untagged), singlicate
Text: as §1

[6] = molecular target: 320 wild-type protein kinases (Homo sapiens, UniProt P54756); settings: singlicate
Chain of 320 wild-type protein kinases (Homo sapiens, UniProt P54756) (P54756 25-1037): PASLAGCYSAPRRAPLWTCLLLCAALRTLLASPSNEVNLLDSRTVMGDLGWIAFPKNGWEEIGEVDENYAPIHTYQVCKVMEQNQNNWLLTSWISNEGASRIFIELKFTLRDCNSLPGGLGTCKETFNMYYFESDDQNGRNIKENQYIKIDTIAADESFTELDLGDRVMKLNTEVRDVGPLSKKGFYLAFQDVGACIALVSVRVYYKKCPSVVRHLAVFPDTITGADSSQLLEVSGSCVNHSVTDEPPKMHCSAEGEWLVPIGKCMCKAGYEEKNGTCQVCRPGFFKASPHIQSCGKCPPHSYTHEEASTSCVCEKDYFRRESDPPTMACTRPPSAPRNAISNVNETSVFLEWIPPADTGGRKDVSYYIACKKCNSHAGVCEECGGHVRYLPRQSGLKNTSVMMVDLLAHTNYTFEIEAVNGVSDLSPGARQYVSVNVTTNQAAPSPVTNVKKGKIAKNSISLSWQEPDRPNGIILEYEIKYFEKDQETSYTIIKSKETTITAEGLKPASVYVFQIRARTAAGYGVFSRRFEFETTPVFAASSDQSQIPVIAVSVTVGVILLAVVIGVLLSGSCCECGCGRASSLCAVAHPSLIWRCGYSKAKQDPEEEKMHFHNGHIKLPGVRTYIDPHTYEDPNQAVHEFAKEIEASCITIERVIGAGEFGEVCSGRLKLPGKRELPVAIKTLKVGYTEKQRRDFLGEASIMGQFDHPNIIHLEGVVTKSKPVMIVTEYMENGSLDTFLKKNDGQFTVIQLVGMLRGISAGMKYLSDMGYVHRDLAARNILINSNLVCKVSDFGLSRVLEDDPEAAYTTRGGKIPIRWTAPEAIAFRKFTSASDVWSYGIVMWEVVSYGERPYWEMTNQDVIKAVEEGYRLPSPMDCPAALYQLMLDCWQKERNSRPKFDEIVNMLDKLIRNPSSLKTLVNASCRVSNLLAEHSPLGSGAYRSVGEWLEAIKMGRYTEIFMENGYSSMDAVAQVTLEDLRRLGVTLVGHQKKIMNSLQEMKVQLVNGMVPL
Text: as §1

[7] = molecular target: 320 wild-type protein kinases (Homo sapiens, UniProt Q9NYY3); settings: kinase SNK, singlicate
Chain of 320 wild-type protein kinases (Homo sapiens, UniProt Q9NYY3) (Q9NYY3 whole entry): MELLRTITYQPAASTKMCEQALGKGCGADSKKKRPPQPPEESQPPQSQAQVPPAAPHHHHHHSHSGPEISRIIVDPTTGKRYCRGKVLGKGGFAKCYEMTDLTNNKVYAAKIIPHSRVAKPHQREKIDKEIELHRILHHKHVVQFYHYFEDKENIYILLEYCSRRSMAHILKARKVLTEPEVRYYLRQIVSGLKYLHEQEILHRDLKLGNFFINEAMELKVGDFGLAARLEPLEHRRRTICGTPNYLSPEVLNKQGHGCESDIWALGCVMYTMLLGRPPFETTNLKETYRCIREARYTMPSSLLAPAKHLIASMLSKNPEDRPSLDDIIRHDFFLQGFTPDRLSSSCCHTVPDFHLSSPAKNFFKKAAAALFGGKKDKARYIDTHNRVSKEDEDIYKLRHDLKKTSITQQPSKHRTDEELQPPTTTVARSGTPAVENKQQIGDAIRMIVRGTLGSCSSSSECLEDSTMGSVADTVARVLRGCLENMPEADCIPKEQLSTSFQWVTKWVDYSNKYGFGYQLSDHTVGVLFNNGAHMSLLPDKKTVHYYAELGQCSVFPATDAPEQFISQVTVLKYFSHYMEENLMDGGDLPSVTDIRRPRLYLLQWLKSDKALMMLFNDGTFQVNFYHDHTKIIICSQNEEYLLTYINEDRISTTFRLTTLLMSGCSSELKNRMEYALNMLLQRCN
Text: as §1

[8] = molecular target: 320 wild-type protein kinases (Homo sapiens, UniProt P21802); settings: singlicate
Chain of 320 wild-type protein kinases (Homo sapiens, UniProt P21802) (P21802 22-821): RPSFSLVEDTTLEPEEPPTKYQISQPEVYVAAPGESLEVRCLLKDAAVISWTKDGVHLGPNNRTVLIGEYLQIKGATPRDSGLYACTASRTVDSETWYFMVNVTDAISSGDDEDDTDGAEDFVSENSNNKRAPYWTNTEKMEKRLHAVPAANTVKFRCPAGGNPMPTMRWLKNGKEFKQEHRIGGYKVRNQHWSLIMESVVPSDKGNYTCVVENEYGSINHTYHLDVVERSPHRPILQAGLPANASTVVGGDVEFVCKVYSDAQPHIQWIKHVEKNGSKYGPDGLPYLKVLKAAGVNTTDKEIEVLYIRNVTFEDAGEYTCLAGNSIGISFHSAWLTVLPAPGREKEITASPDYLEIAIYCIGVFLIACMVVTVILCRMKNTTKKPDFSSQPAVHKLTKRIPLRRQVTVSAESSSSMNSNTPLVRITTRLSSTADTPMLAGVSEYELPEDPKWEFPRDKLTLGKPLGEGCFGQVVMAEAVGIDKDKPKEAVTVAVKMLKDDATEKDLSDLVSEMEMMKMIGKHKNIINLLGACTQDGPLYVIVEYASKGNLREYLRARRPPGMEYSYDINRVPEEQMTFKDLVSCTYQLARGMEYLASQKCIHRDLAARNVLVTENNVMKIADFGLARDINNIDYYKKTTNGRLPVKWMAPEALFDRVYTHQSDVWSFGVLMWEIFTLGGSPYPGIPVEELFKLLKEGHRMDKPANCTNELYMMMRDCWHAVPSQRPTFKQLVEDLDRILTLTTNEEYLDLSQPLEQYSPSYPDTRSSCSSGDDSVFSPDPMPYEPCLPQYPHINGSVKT
Text: as §1

Row | SMILES | Residual activity ([1]; GRK2, 1.0E-06 M) | Residual activity ([1]; GRK2, 1.0E-07 M) | Residual activity ([2]; 1.0E-06 M) | Residual activity ([2]; 1.0E-07 M) | Residual activity, TSK2 ([3]; assay conc. 1.0E-06 M) | Residual activity, TSK2 ([3]; assay conc. 1.0E-07 M) | Residual activity, TAOK2 ([4]; assay conc. 1.0E-06 M) | Residual activity, TAOK2 ([4]; assay conc. 1.0E-07 M) | Residual activity, RAF1 Y340D/Y341D (untagged) ([5]; assay conc. 1.0E-06 M) | Residual activity, RAF1 Y340D/Y341D (untagged) ([5]; assay conc. 1.0E-07 M) | Residual activity ([6]; EPHA5, 1.0E-06 M) | Residual activity ([6]; EPHA5, 1.0E-07 M) | Residual activity, SNK ([7]; assay conc. 1.0E-06 M) | Residual activity, SNK ([7]; assay conc. 1.0E-07 M) | Residual activity ([8]; FGF-R2, 1.0E-06 M) | Residual activity ([8]; FGF-R2, 1.0E-07 M)
1 | C#Cc1cc(Nc2ncnc3cc(I)ccc23)ccc1Cl [Compound 41] | 117 % of control | 104 % of control | 101 % of control | 107 % of control | 123 % of control | 113 % of control | 96 % of control | 110 % of control | 99 % of control | 95 % of control | 126 % of control | 128 % of control | 89 % of control | 97 % of control | 85 % of control | 88 % of control
2 | C#Cc1cc(Nc2ncnc3cc(OC)c(OC)cc23)ccc1Cl [Compound 45] | 111 % of control | 96 % of control | 76 % of control | 110 % of control | 331 % of control | 109 % of control | 106 % of control | 109 % of control | 88 % of control | 83 % of control | 92 % of control | 115 % of control | 87 % of control | 99 % of control | 69 % of control | 87 % of control
